Source: US7795290B2 (Genentech, Inc., priority 2004, dated 2010)

Molecular target: T1, AKT1 (Homo sapiens, UniProt P31749)
T1 construct: purchased Upstate 14-276
Experiment: HTS ATP-utilizing enzyme assay, off-chip mobility-shift (Caliper HTS 250)
Type: biochemical
Conditions: kinase named = inhibitory activity/selectivity; test compound 10 μM; active = greater than three-sigma from mean
Text: The following procedures describe the reagent and plate preparation for a HTS of an ATP-utilizing enzyme, such as a protein kinase, run in an off-chip mobility-shift assay format. The following provides an HTS protocol for running a protein kinase HTS screen on a Caliper HTS 250 microfluidics system. The following parameters are dependent on the protein kinase used and can be determined by one skilled in the art as part of a typical assay development process. For example, the peptide substrate used can be identified from the current literature, by screening a peptide library of potential protein kinase substrates, or by other applicable means accepted in the field.
The following table provides typical screen assay parameters appropriate for a Caliper HTS 250 microfluidics system used to assay AKT1. Parameters used to assay other protein kinases can be determined by one skilled in the art.
Assays to determine the kinase inhibitory activity of chemical entities of the present disclosure were performed using a Caliper HTS 250 microfluidics device, Greiner U-bottom assay plates, a Multidrop for transfer of reagents, and Biomek FX (AMNCBM03) software. Initially, 2.4 μL of a 1 mM solution of a test compound in 100% DMSO was added to a well of the Greiner U-bottom plate. A single Greiner U-bottom plate having 24×16 wells could include multiple test compounds. […] Using the Biomek FX, 10 μL of 0.5 M EDTA was added by the span-8 to wells, indicated as 100% Control and 2.4 μL of 100% DMSO was added by the span-8 to wells, indicated as 0% Control. […] The total reaction volume in each well was 25 μL, and the concentration of the test compound was 10 μM. The assay plate was incubated for 2.5 hrs at 20° C. to 22° C. […] The inhibition of the ATP-utilizing enzyme, such as a particular protein kinase, was determined by measuring the ratio of the peptide substrate to phosphorylated product for each well of the assay plate using the Caliper HTS 250 system.
The use of three-sigma statistical limits represents a conservative method for declaring potential hits among targets. The three-sigma activity, as well as the mean population activity, can be different for each target enzyme.
Each chemical entity listed in Table 2 was tested for protein kinase inhibitory activity according to the biological assays and definitions of protein kinase inhibitory activity as described herein.

T1 sequence (P31749 whole entry): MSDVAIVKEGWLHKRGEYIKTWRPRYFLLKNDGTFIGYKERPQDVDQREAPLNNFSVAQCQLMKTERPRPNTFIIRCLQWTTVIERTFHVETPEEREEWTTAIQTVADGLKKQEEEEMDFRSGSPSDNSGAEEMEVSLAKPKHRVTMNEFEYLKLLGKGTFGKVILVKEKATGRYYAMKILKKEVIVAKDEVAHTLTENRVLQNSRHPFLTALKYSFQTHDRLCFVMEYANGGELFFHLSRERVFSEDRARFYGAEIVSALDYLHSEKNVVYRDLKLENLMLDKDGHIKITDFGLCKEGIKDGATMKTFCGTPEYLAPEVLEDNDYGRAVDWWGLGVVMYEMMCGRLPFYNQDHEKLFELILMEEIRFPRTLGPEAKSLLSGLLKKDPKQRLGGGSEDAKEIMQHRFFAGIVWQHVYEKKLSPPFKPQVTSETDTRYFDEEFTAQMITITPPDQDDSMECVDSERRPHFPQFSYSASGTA

Activity, AKT1:
O=C(c1cccs1)N(CCCN1CCOCC1)c1nc(-c2ccc(Cl)c(Cl)c2)cs1 [N-(4-(3,4-dichlorophenyl)thiazol-2-yl)-N-(3-morpholinopropyl)thiophene-2-carboxamide]
COC(=O)C1CCCN1C(=O)CCCN(C(=O)c1cccs1)c1nc(-c2cc3ccccc3o2)cs1 (centres unmarked) [methyl 1-(4-(N-(4-(benzofuran-2-yl)thiazol-2-yl)thiophene-2-carboxamido)butanoyl)pyrrolidine-2-carboxylate]
Cc1cc(-c2csc(N(CCCN3CCOCC3)C(=O)c3cccs3)n2)ccc1Cl [N-(4-(4-chloro-3-methylphenyl)thiazol-2-yl)-N-(3-morpholinopropyl)thiophene-2-carboxamide]
Cc1nc(-c2cnccn2)sc1-c1csc(N(CCCN2CCOCC2)C(=O)c2cccs2)n1 [N-(4′-methyl-2′-(pyrazin-2-yl)-4,5′-bithiazol-2-yl)-N-(3-morpholinopropyl)thiophene-2-carboxamide]
CN(C)S(=O)(=O)N1CCN(C(=O)CCCN(C(=O)c2cccs2)c2nc(-c3cc4ccccc4o3)cs2)CC1 [N-(4-(benzofuran-2-yl)thiazol-2-yl)-N-(4-(4-(N,N-dimethylsulfamoyl)piperazin-1-yl)-4-oxobutyl)thiophene-2-carboxamide]
O=C(c1ccccc1)N(CCCN1CCOCC1)c1nc(-c2ccccc2)cs1 [N-(3-morpholinopropyl)-N-(4-phenylthiazol-2-yl)benzamide]
CN(C)C1CCN(C(=O)CCN(C(=O)c2cccs2)c2nc(-c3cc4ccccc4o3)cs2)C1 (centres unmarked) [N-(4-(benzofuran-2-yl)thiazol-2-yl)-N-(3-(3-(dimethylamino)pyrrolidin-1-yl)-3-oxopropyl)thiophene-2-carboxamide]
O=C(NCCO)C1CCN(C(=O)CCCN(C(=O)c2cccs2)c2nc(-c3cc4ccccc4o3)cs2)CC1 [1-(4-(N-(4-(benzofuran-2-yl)thiazol-2-yl)thiophene-2-carboxamido)butanoyl)-N-(2-hydroxyethyl)piperidine-4-carboxamide]
NC(=O)C1CCCN(C(=O)CCN(C(=O)c2cccs2)c2nc(-c3cc4ccccc4o3)cs2)C1 (centres unmarked) [1-(3-(N-(4-(benzofuran-2-yl)thiazol-2-yl)thiophene-2-carboxamido)propanoyl)piperidine-3-carboxamide]
O=C(c1cccnc1)N(CCCN1CCOCC1)c1nc(-c2cc3ccccc3o2)cs1 [N-(4-(benzofuran-2-yl)thiazol-2-yl)-N-(3-morpholinopropyl)nicotinamide]
CC(C)(C)OC(=O)N1CCN(CCCN(C(=O)c2cccs2)c2nc(-c3cc4ccccc4o3)cs2)CC1 [tert-butyl 4-(3-(N-(4-(benzofuran-2-yl)thiazol-2-yl)thiophene-2-carboxamido)propyl)piperazine-1-carboxylate]
CCc1nnc(NC(=O)c2csc(N(CCCN3CCOCC3)C(=O)c3cccs3)n2)s1 [N-(5-ethyl-1,3,4-thiadiazol-2-yl)-2-(N-(3-morpholinopropyl)thiophene-2-carboxamido)thiazole-4-carboxamide]
O=C(c1cccs1)N(CCCN1CCCCC1CN1CCCC1)c1nc(-c2cc3ccccc3o2)cs1 (centres unmarked) [N-(4-(benzofuran-2-yl)thiazol-2-yl)-N-(3-(2-(pyrrolidin-1-ylmethyl)piperidin-1-yl)propyl)thiophene-2-carboxamide]
COc1ccc(OC)c(-c2csc(N(CCCN3CCCCCC3)C(=O)c3cccs3)n2)c1 [N-(3-(azepan-1-yl)propyl)-N-(4-(2,5-dimethoxyphenyl)thiazol-2-yl)thiophene-2-carboxamide]
